Laboratory results reported in patent US20110053896A1, “OSMOLYTES FOR THE TREATMENT OF ALLERGIC OR VIRAL RESPIRATORY DISEASES” (priority 2007, published 2011).

Columns and labels:
[1] = test system: ICAM-1 expression; assay: Reduction of ICAM-1 expression by DGP in UVA-irradiated ceratinozytes; assay type: cell-based; details: Human ceratinozytes pretreated with DGP for 24 hours, UVA radiation
Protocol: Human ceratinozytes were pretreated with DGP for 24 hours. After radiation using UVA rays (environment noxes) the quantity of ICAM-1 was measured.

[2] = test system: rats sensitized to ovalbumin (OVA), early allergic reaction; assay: Ovalbumin-induced allergic asthma in rats, early allergic reaction (lung function); assay type: in vivo; details: intratracheal pretreatment 48 h, 24 h and 2 h before ovalbumin challenge, in comparison to the negative control
Source text: (§1) The study population consisted of 4 treatment groups, a reference group, a sham-sensitized and vehicle-treated negative control group, and a vehicle-treated positive control group. The group size was n=16.
In the first phase of the study, all animals, except for the sham-sensitized group, were systemically sensitized to ovalbumin (OVA) plus adjuvants, the negative control group was given NaCl. On days 7 and 14, the animals were intratracheally boosted with OVA (to enhance the sensitizing effect). 48 h, 24 h and 2 h before the final inhalative allergen exposure was performed, three groups and a positive control group were subjected to an intratracheal pretreatment with the test substance, ectoine, at three dosage levels. […] After expiry of the waiting period, the animals were anesthetized, orotracheally intubated in a gentle manner and—after placement of an oesophagus catheter and allowing the mice to reach a steady state—their lung functions (including such parameters as tidal volume, breathing frequency, dynamic compliance and lung resistance) were measured body-plethysmographically prior to provocation. The data was collected and evaluated using a computer program (HEM, Notocord/France) specifically developed for these lung function tests.
The lung function parameters were continuously recorded during and after exposure in order to measure bronchospasm.

[3] = test system: ICAM-1 expression; assay: Inhibition of ICAM-1 expression by ectoine (RT-PCR, UVA radiation); assay type: cell-based; details: ceratinzytes pre-incubated for 24 h with 1 mM ectoine, UVA 30 J/cm^2, RT-PCR relative to β-actin
Protocol: ICAM-1 expression was measured using differential reverse transcriptase-PCR (RT-PCR) and the Applied Biosystem Kit. To take account of the normal variations in the gene expression of skin cells, ICAM-1 expression is put into relationship to the constitutively formed house-keeping gene, β-actin. The semi-quantitive analysis of RT-PCR was performed by ion exchange chromatography using a UV spectrophotometer (A260). (A) Non-pretreated, radiated control sample (B) pre-incubated for 24 h with 1 mM RonaCare™ Ectoin and radiated with a single dose of 30 J/cm^2 or (C) pre-incubated for 24 h with 1 mM ectoine, non-irradiated. UVA radiation induces upregulation of ICAM-1 expression.

[4] = test system: rats sensitized to ovalbumin (OVA), late allergic reaction; assay: Ovalbumin-induced allergic asthma in rats, late allergic reaction (hyperreactivity, BAL); assay type: in vivo; details: 24 h after the ovalbumin challenge, acetyl-choline hyperreactivity and BAL cell counts, compared to negative control group
Source text: as §1
In the first phase of the study, all animals, except for the sham-sensitized group, were systemically sensitized to ovalbumin (OVA) plus adjuvants, the negative control group was given NaCl. On days 7 and 14, the animals were intratracheally boosted with OVA (to enhance the sensitizing effect). […] The two control groups were given only NaCl. After expiry of the waiting period, the animals were anesthetized, orotracheally intubated in a gentle manner and—after placement of an oesophagus catheter and allowing the mice to reach a steady state—their lung functions (including such parameters as tidal volume, breathing frequency, dynamic compliance and lung resistance) were measured body-plethysmographically prior to provocation. The data was collected and evaluated using a computer program (HEM, Notocord/France) specifically developed for these lung function tests.
The late allergic phase was tested 24 h after the ovalbumin challenge. First the animals were tested for airway hyperreactivity to unspecific stimuli. […] Using the lavage liquid, the total and the differential cell counts were determined including the number of esinophiles in the BAL.

[5] = test system: Balb/c mice sensitized with ovalbumin (acute allergic asthma); assay: Ovalbumin-sensitized mice, allergic asthma model, intranasal ectoine solution; assay type: in vivo; details: 50 μl intranasal, 14 treatments day 0 to 32, compared to 0.9% salt solution
Protocol: Seven-months-old mice of the inbred strain Balb/c were sensitized by injecting them intraperitoneally with a mixture of ovalbumin and aluminum hydroxide contained in a total volume of 200 μl buffer (PBS). The injection was made twice, once on day 0 and once on day 14. The size of each group tested was n=8.
In order to subsequently induce the allergic reaction in the lungs of the mice, i.e. s to trigger the acute allergic asthma, the mice were treated inhalatively with an ovalbumin aerosol for 30 minutes each on days 28 and 38. For this purpose, the mice were placed in a plexiglass chamber, into which a misty 1% OVA solution was introduced through an inhaler.
For ectoine treatment, the animals were anesthetized with a mixture of ketamine and rompune. 50 μl of a sterile ectoine solution or 0.9% salt solution was applied in front of the nostrils with glass capillaries until the solution was completed inhaled. The treatments—14 in all—started on day 0. The last treatment was administered on day 32.
The end points of the study were defined as the bronchial hyperreactivity as measured with a plethysmograph, the b ronchoalveolar lavage (BAL) cellular composition and the release of OVA-specific igE and igG1 antibodies.

SMILES	inhibition of ICAM-1 expression [1] [%]	effect on lung function parameters (early allergic reaction, bronchospasm) [2]	ICAM-1 induction caused by UVA radiation [3]	effect on the late allergic reaction [4]	effect on bronchial hyperreactivity, BAL cellular composition and release of OVA-specific igE and igG1 antibodies [5]
O=P(O)(OCC(O)CO)OCC(O)CO (centres unmarked) [DGP, 1,1-diglycerol phosphate]	49	–	–	–	–
CC1=NCC[C@@H](C(=O)O)N1 [ectoine]	–	significant positive effect	almost completely neutralize	positive effect	significant positive effect
